Results from PubChem BioAssay (NCI).
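Exposure lasted 48 hours, with cells grown in 96-well plates and compounds tested at five concentrations. GI50: concentration for 50% inhibition of growth. The concentration for full growth arrest is given as TGI.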

Columns and labels:
Assay in all cases: NCI-60 cell line screen, 48 h
RPMI-8226 leukemia = system: RPMI-8226 leukemia
786-0 renal = system: 786-0 renal
SK-MEL-5 melanoma = system: SK-MEL-5 melanoma
A549 NSCLC = system: A549 NSCLC
NCI-H226 lung = system: NCI-H226 lung
ACHN renal = system: ACHN renal
SN12C renal = system: SN12C renal
SNB-75 CNS = system: SNB-75 CNS
OVCAR-5 ovarian = system: OVCAR-5 ovarian
EKVX NSCLC = system: EKVX NSCLC

CN1C(=O)C(c2c[nH]c3ccccc23)=C(c2c[nH]c3ccccc23)C1=O
GI50 (RPMI-8226 leukemia): 6.84 µM | TGI (RPMI-8226 leukemia): 25 µM | GI50 (786-0 renal): 9.85 µM | TGI (786-0 renal): > 25 µM | GI50 (SK-MEL-5 melanoma): 4.5 µM | TGI (SK-MEL-5 melanoma): 10.9 µM | GI50 (A549 NSCLC): 7.08 µM | TGI (A549 NSCLC): > 25 µM | GI50 (NCI-H226 lung): 5.96 µM | TGI (NCI-H226 lung): > 19.4 µM | GI50 (ACHN renal): 6 µM | TGI (ACHN renal): > 25 µM | GI50 (SN12C renal): 7.75 µM | TGI (SN12C renal): > 25 µM | GI50 (SNB-75 CNS): 4.26 µM | TGI (SNB-75 CNS): > 25 µM | GI50 (OVCAR-5 ovarian): 9.88 µM | TGI (OVCAR-5 ovarian): > 25 µM

C=CCC1(O)c2ccccc2C(=O)c2c(OCC(=O)OCC)ccc(OCC(=O)OCC)c21 (stereo not drawn)
GI50 (RPMI-8226 leukemia): 89 µM | TGI (RPMI-8226 leukemia): > 100 µM | GI50 (786-0 renal): > 100 µM | TGI (786-0 renal): > 100 µM | GI50 (SK-MEL-5 melanoma): > 100 µM | TGI (SK-MEL-5 melanoma): > 100 µM | GI50 (A549 NSCLC): > 100 µM | TGI (A549 NSCLC): > 100 µM | GI50 (NCI-H226 lung): > 100 µM | TGI (NCI-H226 lung): > 100 µM | GI50 (ACHN renal): > 100 µM | TGI (ACHN renal): > 100 µM | GI50 (SN12C renal): 87.6 µM | TGI (SN12C renal): > 100 µM | GI50 (EKVX NSCLC): > 100 µM | TGI (EKVX NSCLC): > 100 µM | GI50 (OVCAR-5 ovarian): > 100 µM | TGI (OVCAR-5 ovarian): > 100 µM

C=CC1(C)CCC2C(=CCC3C2(C)CC(O)C(O)C3(C)COC2OC(CO)C(O)C(O)C2O)C1 (stereo not drawn)
TGI (786-0 renal): > 100 µM | TGI (SK-MEL-5 melanoma): > 100 µM | TGI (A549 NSCLC): > 100 µM | TGI (NCI-H226 lung): > 100 µM | TGI (ACHN renal): > 100 µM | TGI (SN12C renal): > 100 µM | TGI (EKVX NSCLC): > 100 µM | TGI (SNB-75 CNS): > 100 µM | TGI (OVCAR-5 ovarian): > 100 µM

NS(=O)(=O)c1ccc(N(/C=C/C(=O)C(F)(F)F)CC(=O)c2ccc(F)cc2)cc1
GI50 (RPMI-8226 leukemia): 19.5 µM | TGI (RPMI-8226 leukemia): 55.8 µM | GI50 (786-0 renal): 44.7 µM | TGI (786-0 renal): > 100 µM | GI50 (A549 NSCLC): 44.2 µM | TGI (A549 NSCLC): > 100 µM | GI50 (NCI-H226 lung): 22.6 µM | TGI (NCI-H226 lung): 40.9 µM | GI50 (ACHN renal): 21.3 µM | TGI (ACHN renal): 67.1 µM | GI50 (SN12C renal): 19.4 µM | TGI (SN12C renal): 45.3 µM | GI50 (EKVX NSCLC): 29.7 µM | TGI (EKVX NSCLC): 87.2 µM | GI50 (OVCAR-5 ovarian): 28.8 µM | TGI (OVCAR-5 ovarian): 74.4 µM

CCN(CC)CC(=O)NC1c2ccccc2Oc2ccccc21
TGI (RPMI-8226 leukemia): > 100 µM | TGI (786-0 renal): > 100 µM | TGI (SK-MEL-5 melanoma): > 100 µM | TGI (A549 NSCLC): > 100 µM | TGI (NCI-H226 lung): > 100 µM | TGI (SN12C renal): > 100 µM | TGI (EKVX NSCLC): > 100 µM | TGI (SNB-75 CNS): > 100 µM | TGI (OVCAR-5 ovarian): > 100 µM

Cc1c(C(Cc2ccccc2N(C)C(=O)/C=C\C(=O)O)c2c[nH]c3ccccc23)c2ccccc2n1C (stereo not drawn)
TGI (786-0 renal): 35.9 µM | TGI (SK-MEL-5 melanoma): 29.8 µM | TGI (A549 NSCLC): 31.8 µM | TGI (NCI-H226 lung): 43 µM | TGI (ACHN renal): 34.3 µM | TGI (SN12C renal): 30 µM | TGI (EKVX NSCLC): 33.1 µM | TGI (SNB-75 CNS): 33.7 µM | TGI (OVCAR-5 ovarian): 35.6 µM

CC1=C(CCCOC(=O)[C@H](N)CC(C)C)C2=C(C)C3(CC3)[C@@](C)(O)C(=O)C2=C1
GI50 (RPMI-8226 leukemia): 21.2 µM | TGI (RPMI-8226 leukemia): 57.1 µM | GI50 (786-0 renal): 2.84 µM | TGI (786-0 renal): 11.4 µM | GI50 (SK-MEL-5 melanoma): 1.44 µM | TGI (SK-MEL-5 melanoma): 2.83 µM | GI50 (A549 NSCLC): 3.06 µM | TGI (A549 NSCLC): 30.9 µM | GI50 (NCI-H226 lung): 1.89 µM | TGI (NCI-H226 lung): 6.95 µM | GI50 (SN12C renal): 2.6 µM | TGI (SN12C renal): > 100 µM | GI50 (EKVX NSCLC): 2.77 µM | TGI (EKVX NSCLC): 8.66 µM | GI50 (SNB-75 CNS): 1.34 µM | TGI (SNB-75 CNS): 3.05 µM | GI50 (OVCAR-5 ovarian): 1.94 µM | TGI (OVCAR-5 ovarian): 11.8 µM

C[C@@H]1C(=O)CC2C(C)(C)CCC[C@]2(C)[C@@]12CC[C@]1(C=COC1)O2 (stereo partly drawn)
TGI (786-0 renal): > 100 µM | TGI (A549 NSCLC): > 100 µM | TGI (NCI-H226 lung): > 100 µM | TGI (ACHN renal): > 100 µM | TGI (SN12C renal): 38 µM | TGI (EKVX NSCLC): > 100 µM | TGI (OVCAR-5 ovarian): > 100 µM

O=C(/C=C/c1ccccc1)NC1C=Nc2ccc([N+](=O)[O-])cc2NC1=O (stereo not drawn)
TGI (786-0 renal): > 100 µM | TGI (SK-MEL-5 melanoma): > 100 µM | TGI (A549 NSCLC): > 100 µM | TGI (NCI-H226 lung): > 100 µM | TGI (ACHN renal): > 100 µM | TGI (SN12C renal): > 100 µM | TGI (EKVX NSCLC): > 100 µM | TGI (SNB-75 CNS): > 100 µM | TGI (OVCAR-5 ovarian): > 100 µM
